Experimental data: patent US4987148A, “Biocidal 4,5-dichloro-1,2-dithiol-3-one composition” (Yoshitomi Pharmaceutical Industries, Ltd., priority 1989, dated 1991)
Like-named read-outs stand apart in the source and are kept apart here.

Key:
[1] = cited from earlier work
[2] = Solubility test: dithiol compound in 100 g of respective solvents at 25° C.; assay type: physicochemical
Description: The solubilities (weight %) of the dithiol compound in 100 g of the respective solvents shown in Table 1 at 25° C. ar indicated in Table 1.

[3] = Crystallization and redissolution test; assay type: physicochemical
Description: In transparent 50 ml-glass vessels, the dithiol compound and N-methyl-2-pyrrolidone were mixed at the prescribed concentrations, and dissolved, if necessary, under heating. The crystals were yielded by cooling these solutions suitably, under the observation of the state. The crystallizing temperature was measured. The crystallized solutions were heated, and the temperature at which the crystals began to dissolve was measured.

[4] = Storage and stability test in transparent glass vessels at 60° C. (50% compositions, HPLC remaining rate); assay type: physicochemical
Description: In transparent 50 ml-glass vessels, a 50% N-methyl-2-pyrrolidone composition of the dithiol compound (the composition of the present invention), a 50% dimethylformamide composition containing 5 weight % diethylene glycol monomethyl ether, a 50% N-vinyl-2-pyrrolidone composition and a 50% 2-pyrrolidone composition of the dithiol compound (compositions for comparison) were prepared, and the storage and stability tests were conducted.
The tests were conducted by leaving the compositions standing at 60° C. for 15 days and 30 days and examining the remaining rate of the dithiol compound based upon the measurement of area ratio at 317 nm by means of high performance liquid chromatography (HPLC).

[5] = Storage and stability test in polyethylene bottle in can at 60° C. (HPLC remaining rate; half life); assay type: physicochemical; settings: for Half life of dithiol compound: first order
Description: The dithiol compound and N-methyl-2-pyrrolidone were mixed at the concentrations as shown in Table 4 to prepare compositions. Each 50 ml of the compositions was served in a polyethylene bottle, and the bottle was further served tightly in a can with a lid.
The storage and stability tests were conducted by leaving the compositions standing at 60° C. for 11 days (or 15 days) and 30 days in the above state and examining the remaining rate of the dithiol compound based upon the measurement of area ratio at 317 nm by means of high performance liquid chromatography (HPLC).
Since the decomposition rate of the dithiol compound fit to the first order reaction, a half life of the dithiol compound (t 1/2), in the each compositions at 60° C., was calculated with the following equation: […]
wherein α represents a remaining percentage of the dithiol compound, k represents a decomposition rate constant of the dithiol compound and t represents a number of days.

[6] = State of compositions (crystallization, solidification, scoopability, stability) in storage and at low temperature; assay type: physicochemical; settings: compositions with N-methyl-2-pyrrolidone
[7] = tested on: viable microbes in industrial cooling water, washing water, raw water, power water; settings: raw water and power water, Kokoku No. 14294/1977; cited from earlier work
[8] = cited from earlier work; remark: listed apart in the source
[9] = cited from earlier work; remark: listed apart in the source
[10] = powdery form; cited from earlier work
[11] = 10 weight % in N-methyl-2-pyrrolidone
[12] = 20 weight % in N-methyl-2-pyrrolidone
[13] = 30 weight % in N-methyl-2-pyrrolidone
[14] = 40 weight % in N-methyl-2-pyrrolidone
[15] = 50 weight % in N-methyl-2-pyrrolidone
[16] = 60 weight % in N-methyl-2-pyrrolidone
[17] = 70 weight % in N-methyl-2-pyrrolidone
[18] = 80 weight % in N-methyl-2-pyrrolidone

## CN(C)C=O [dimethylformamide]
[1]; solvent
  Toxicity: inherently so strong in toxicity

## O=c1ssc(Cl)c1Cl [dithiol compound, 4,5-Dichloro-l,2-dithiol-3-one]
[2]; in 1,2-Bis(bromoacetoxy)ethane
  Solubility: 21.9 weight %
[2]; in 2-Pyrrolidone
  Solubility: 51.0 weight %
[2]; in 100 g 1,2-Bis(bromoacetoxy)ethane
  Amount by weight of dissolved dithiol compound: 28 g
[2]; in 100 g 2-Pyrrolidone
  Amount by weight of dissolved dithiol compound: 104 g
[2]; in 100 g Dimethylformamide containing 5 weight % diethylene glycol monomethyl ether
  Amount by weight of dissolved dithiol compound: 206 g
[2]; in 100 g N-Methyl-2-pyrrolidone
  Amount by weight of dissolved dithiol compound: 222 g
[2]; in 100 g N-Vinyl-2-pyrrolidone
  Amount by weight of dissolved dithiol compound: 117 g
[2]; in Dimethylformamide containing 5 weight % diethylene glycol monomethyl ether
  Solubility: 67.3 weight %
[2]; in N-Methyl-2-pyrrolidone
  Solubility: 68.9 weight %
[2]; in N-Vinyl-2-pyrrolidone
  Solubility: 53.9 weight %
[3]; [11]
  Crystallizing temperature: -29.3 °C
  Crystals-dissolving temperature: -23.7 °C
[3]; [12]
  Crystallizing temperature: -27.8 °C
  Crystals-dissolving temperature: -22.7 °C
[3]; [13]
  Crystallizing temperature: -22.0 °C
  Crystals-dissolving temperature: -16.2 °C
[3]; [14]
  Crystallizing temperature: -18.8 °C
  Crystals-dissolving temperature: -9.2 °C
[3]; [15]
  Crystallizing temperature: -18.3 °C
  Crystals-dissolving temperature: 4.7 °C
[3]; [16]
  Crystallizing temperature: -13.3 °C
  Crystals-dissolving temperature: 12.0 °C
[3]; [17]
  Crystallizing temperature: 6.0 °C
  Crystals-dissolving temperature: 26.5 °C
[3]; [18]
  Crystallizing temperature: 26.8 °C
  Crystals-dissolving temperature: 36.2 °C
[4]; 50% in 2-pyrrolidone, 60° C., 15 days
  Remaining percentage of dithiol compound: 38.9%
[4]; 50% in 2-pyrrolidone, 60° C., 30 days
  Remaining percentage of dithiol compound: 18.0%
[4]; 50% in Dimethylformamide containing 5 weight % diethylene glycol monomethyl ether, 60° C., 15 days
  Remaining percentage of dithiol compound: 94.2%
[4]; 50% in Dimethylformamide containing 5 weight % diethylene glycol monomethyl ether, 60° C., 30 days
  Remaining percentage of dithiol compound: 84.7%
[4]; 50% in N-methyl-2-pyrrolidone, 60° C., 15 days
  Remaining percentage of dithiol compound: 97.3%
[4]; 50% in N-methyl-2-pyrrolidone, 60° C., 30 days
  Remaining percentage of dithiol compound: 93.3%
[4]; N-Vinyl-2-pyrrolidone composition could not be obtained, in a few minutes after mixing
  Observation on mixing with N-vinyl-2-pyrrolidone: exothermic polymerization reaction occurred intensively
[4]; in N-methyl-2-pyrrolidone, left standing 15 days and 30 days, 60° C.
  Decomposition of dithiol compound in the composition of the invention: scarcely decomposed
[5]; 5% in N-methyl-2-pyrrolidone, 15 days
  Remaining percentage of dithiol compound: 70.8%
[5]; 5% in N-methyl-2-pyrrolidone, 30 days
  Remaining percentage of dithiol compound: 58.3%
[5]; 5% in N-methyl-2-pyrrolidone
  Half life of dithiol compound: 39 days
[5]; 10% in N-methyl-2-pyrrolidone, 11 days
  Remaining percentage of dithiol compound: 90.5%
[5]; 10% in N-methyl-2-pyrrolidone, 30 days
  Remaining percentage of dithiol compound: 83.2%
[5]; 10% in N-methyl-2-pyrrolidone
  Half life of dithiol compound: 103 days
[5]; 15% in N-methyl-2-pyrrolidone, 11 days
  Remaining percentage of dithiol compound: 93.7%
[5]; 15% in N-methyl-2-pyrrolidone, 30 days
  Remaining percentage of dithiol compound: 87.4%
[5]; 15% in N-methyl-2-pyrrolidone
  Half life of dithiol compound: 145 days
[5]; 20% in N-methyl-2-pyrrolidone, 11 days
  Remaining percentage of dithiol compound: 93.8%
[5]; 20% in N-methyl-2-pyrrolidone, 30 days
  Remaining percentage of dithiol compound: 88.2%
[5]; 20% in N-methyl-2-pyrrolidone
  Half life of dithiol compound: 153 days
[5]; 25% in N-methyl-2-pyrrolidone, 11 days
  Remaining percentage of dithiol compound: 94.3%
[5]; 25% in N-methyl-2-pyrrolidone, 30 days
  Remaining percentage of dithiol compound: 89.0%
[5]; 25% in N-methyl-2-pyrrolidone
  Half life of dithiol compound: 165 days
[5]; 30% in N-methyl-2-pyrrolidone, 11 days
  Remaining percentage of dithiol compound: 95.6%
[5]; 30% in N-methyl-2-pyrrolidone, 30 days
  Remaining percentage of dithiol compound: 88.8%
[5]; 30% in N-methyl-2-pyrrolidone
  Half life of dithiol compound: 174 days
[5]; 35% in N-methyl-2-pyrrolidone, 11 days
  Remaining percentage of dithiol compound: 95.7%
[5]; 35% in N-methyl-2-pyrrolidone, 30 days
  Remaining percentage of dithiol compound: 89.3%
[5]; 35% in N-methyl-2-pyrrolidone
  Half life of dithiol compound: 181 days
[5]; 40% in N-methyl-2-pyrrolidone, 11 days
  Remaining percentage of dithiol compound: 96.6%
[5]; 40% in N-methyl-2-pyrrolidone, 30 days
  Remaining percentage of dithiol compound: 90.4%
[5]; 40% in N-methyl-2-pyrrolidone
  Half life of dithiol compound: 209 days
[5]; 50% in N-methyl-2-pyrrolidone, 15 days
  Remaining percentage of dithiol compound: 97.3%
[5]; 50% in N-methyl-2-pyrrolidone, 30 days
  Remaining percentage of dithiol compound: 93.3%
[5]; 50% in N-methyl-2-pyrrolidone
  Half life of dithiol compound: 300 days
[6]
  Storage and stability of the effective ingredient: extremely high
[7]
  Slime control: excellent slime control agent
[8]; aqueous solution
  Stability in aqueous solution: very unstable in the obtained aqueous solution and susceptible to hydrolysis in a short period of time
[8]; water
  Solubility in water: below 1%
[9]; diethylene glycol monomethyl ether / dimethylformamide preparations, long period
  Storage and stability of the dithiol compound: insufficient to storage and stability of the dithiol compound over a long period
[9]; in 1,2-bis(bromoacetoxy)ethane, U.S. Pat. No. 4647577
  Solubility of the dithiol compound: about 22%
[9]; in mixed solvent of diethylene glycol monomethyl ether and dimethylformamide, 25° C., Kokoku No. 23721/1987
  Solubility of the dithiol compound: about 67 weight %
[10]
  Skin irritancy: highly skin-irritant

## CN1CCCC1=O [N-Methyl-2-pyrrolidone]
[1]; solvent N-Methyl-2-pyrrolidone
  Odor, inflammability, toxicity: few problems in terms of odor, inflammability, toxicity
